{"source": "patent US20110252694A1", "about": "“COMPOSITIONS FOR DRIP FUMIGATION” (priority 2010, published 2011)", "origin": "cited, not measured here", "key": {"plant": {"test_system": "plant", "conditions": "when used in effective concentrations"}, "[1]": {"test_system": "weeds, nematodes, and soil pathogens", "conditions": "compared with methyl bromide"}}, "data": [{"smiles": "CI", "note": "[Methyl Iodide, methyl iodide]", "values": [{"measurement": "plant toxicity", "setting": "plant", "result": "does not result in plant toxicity"}, {"measurement": "combating weeds, nematodes, and soil pathogens", "setting": "[1]", "result": "equal to or better than methyl bromide"}]}]}
